Data on seven compounds can be found in US20200253196A1, “SOLVENTS FOR AGRICULTURAL APPLICATIONS AND PESTICIDE FORMULATIONS” (priority 2017, published 2020).

This data set in a line: Solubility of pesticides in solvents (pesticide powder added in 2% stepwise increments). The format is physicochemical. To be noted: for Solubility in Comparative Solvent B: solvent Solvesso 150; for Solubility in Comparative Solvent B / Solubility in Inventive Solvent 1 / Solubility in Comparative Solvent A: concentration just prior to the one where the powder is not dissolved, no more than 2% lower than actual solubility; for Solubility in Inventive Solvent 1: solvent ethyl 3-ethoxypropionate; for Solubility in Comparative Solvent A: solvent xylene; for Dissolving ability of Comparative Solvent A compared with Inventive Solvent 1: comparison xylene vs ethyl 3-ethoxypropionate; for Dissolving ability of Comparative Solvent A compared with Inventive Solvent 1 / Dissolving ability of Comparative Solvent B compared with Inventive Solvent 1: in words; for Dissolving ability of Comparative Solvent B compared with Inventive Solvent 1: comparison Solvesso 150 vs ethyl 3-ethoxypropionate.

Procedure: The solubility of various pesticides in these solvents are evaluated.
Each pesticide powder is added by solvent in 2% stepwise increments to the final pesticide concentration. Each pesticide reaches a concentration where the pesticide powder is not dissolved by the solvent.

With `CC(C)(C)C(=O)C(Oc1ccc(Cl)cc1)n1cncn1` (stereo not shown) [Triazolone], the “Solubility in Comparative Solvent B” value was 12 weight %, the “Solubility in Inventive Solvent 1” value is 32 weight % and the “Solubility in Comparative Solvent A” value was found to be 23 weight %.

Take `CCOP(=S)(OCC)Oc1nc(Cl)c(Cl)cc1Cl` [Chlopyrifos]: the “Dissolving ability of Comparative Solvent A compared with Inventive Solvent 1” value is “stronger dissolving ability”, the “Solubility in Comparative Solvent B” value worked out at 54 weight %, the “Solubility in Inventive Solvent 1” value is 63 weight % and the “Solubility in Comparative Solvent A” value turned out to be 70 weight %.

Regarding `CCCCC(C#N)(Cn1cncn1)c1ccc(Cl)cc1` (stereo not shown) [Myclobutanil], the “Solubility in Comparative Solvent B” value is reported as 23 weight %, the “Solubility in Inventive Solvent 1” value came out at 39 weight % and the “Solubility in Comparative Solvent A” value is recorded as 27 weight %.

Turning to `Cc1c(COC(=O)[C@@H]2[C@H](/C=C(\Cl)C(F)(F)F)C2(C)C)cccc1-c1ccccc1` (racemic) [Bifenthrin], the “Dissolving ability of Comparative Solvent B compared with Inventive Solvent 1” value is “comparable dissolving ability”, the “Dissolving ability of Comparative Solvent A compared with Inventive Solvent 1” value is given as “stronger dissolving ability”, the “Solubility in Comparative Solvent B” value was determined as 44 weight % and the “Solubility in Inventive Solvent 1” value was 43 weight %. Moreover, the “Solubility in Comparative Solvent A” value is recorded as 45 weight %.

`CC(C)(C)C(O)(CCc1ccc(Cl)cc1)Cn1cncn1` (stereo not shown) [Tebuconazole]: the “Solubility in Comparative Solvent B” value amounted to 2.0 weight %, the “Solubility in Inventive Solvent 1” value was 16 weight % and the “Solubility in Comparative Solvent A” value worked out at 4.0 weight %.

In the case of `COC(=O)N(OC)c1ccccc1COc1ccn(-c2ccc(Cl)cc2)n1` [Pyraclostrobin], the “Solubility in Comparative Solvent B” value is 31 weight %, the “Solubility in Inventive Solvent 1” value is 47 weight % and the “Solubility in Comparative Solvent A” value is 42 weight %.

In the case of `CC(C)N1C(=O)N(c2ccccc2)CS/C1=N\C(C)(C)C` [Buprofezin], the “Dissolving ability of Comparative Solvent B compared with Inventive Solvent 1” value is listed as “comparable dissolving ability”, the “Solubility in Comparative Solvent B” value is listed as 16 weight %, the “Solubility in Inventive Solvent 1” value was determined as 18 weight % and the “Solubility in Comparative Solvent A” value is recorded as 10 weight %.
